According to PMC9897788, “Design, synthesis and cytotoxic evaluation of novel bis-thiazole derivatives as preferential Pim1 kinase inhibitors with in vivo and in silico study” (Journal of Enzyme Inhibition and Medicinal Chemistry, 2023):

How the values were obtained:
[1] = test system: Pim1; parameters: method as in PMID 25575657; conditions: cited from earlier work
[2] = test system: Pim3; parameters: method as in PMID 25575657; conditions: cited from earlier work
[3] = test system: Pim2; parameters: method as in PMID 25575657; conditions: cited from earlier work
[4] = test system: Pim1 gene; parameters: method as in PMID 34458233; conditions: quantitative RT-PCR; cited from earlier work
[5] = test system: Ehrlich solid carcinoma; experiment: In vivo cytotoxicity study, Ehrlich solid carcinoma model; parameters: species or system male Swiss albino mice; conditions: i.p. once weekly for 3 weeks, 8b 1 mg/kg, 3b 1.4 mg/kg, doxorubicin 2 mg/kg; for VEGF expression by immunohistochemistry / caspase-3 expression by immunohistochemistry: Ehrlich solid tumour tissue; for Histopathological examination of Ehrlich solid tumour (H&E): mice
Method: The National Cancer Institute (Cairo, Egypt) provided the 48 male Swiss albino mice utilised in this study, which ranged in weight from 25 to 30 g. Prior to the experiment, mice were given a week to settle into their new environment. A constant 23 °C temperature, 60% humidity, and a 12/12 light/dark cycle were maintained in stainless steel cages. Each cage housed five mice with a plenty of nourishing food and refreshing water were served. This in vivo study was approved from the ethical committee of the Azhar University, Faculty of Medicine, Egypt.
A female mouse with an 8-day-old ascetic tumour was obtained from the National Cancer Institute on the day of induction, and Ehrlich ascites carcinoma (EAC) cells were isolated from the ascetic fluid of the animal (day 0). Then, regular saline was used to dilute the ascetic fluid (1:10). Each mouse received a subcutaneous injection of 0.2 ml of ascetic fluid containing 2.5 × 10^6 EAC cells in the right thigh of the hind limb to induce Ehrlich solid-phase cancer.
On day 11 following ESC inoculation, tumour formation was observed as a solid mass expanding in the right thigh of each animal. The mice were then randomly divided into four groups (n = 6) • Group (1) acted as the […] control group and mice received an i.p. DMSO (2 mg/kg/once weekly) for 3 weeks. • Group (2) (Doxorubicin Group) mice received an i.p. dose of doxorubicin (2 mg/kg/once weekly) for 3 weeks. • Group (3) mice were given an i.p. dose of 8b compound (1 mg/kg/once weekly) for 3 weeks, • Group (4) mice were given an i.p. dose of 3b compound (1.4 mg/kg/once weekly) for 3 weeks.
Two days after the last dose of therapy, blood was drawn from the mice’s orbital canthus, and serum was separated and stored at −80 °C for upcoming biochemical investigations. Following the cervical dislocation method of euthanasia, tumour samples from each mouse were collected and preserved in neutral buffered formalin at a 10% concentration for immunohistochemistry and histopathology studies. Histological preparations were performed according to the reported method. Slices of Ehrlich tumour were cut to a thickness of 3–4 mm before being fixed in 10% neutral buffered formalin (10% NBF), dehydrated through a series of ethanol solutions, cleaned in xylene, and finally embedded in paraffin. To examine the overall tissue architecture, sections ([…]) thick were cut from paraffin blocks using a microtome and stained with haematoxylin and eosin. We used a Leica microscope (CH9435 Hee56rbrugg) to look at H&E-stained tissue sections (Leica Microsystems, Switzerland).
The avidin–biotin–peroxidase complex (ABC) method was used to do immunohistochemistry on paraffin sections that were put on positively charged slides. Rabbit Anti-VEGF Receptor 2 Polyclonal Antibody (Elabscience Cat# E-AB-63481, Dil.: 1:100) and Rabbit Monoclonal anti-caspase-3 antibody, active (cleaved) form (Sigma Aldrich Catalog # AB3623)[41], were utilised during this IHC assessment. Each group’s sections were treated with the previously specified antibodies, after which the ABC technique reagents (Vectastain ABC-HRP kit, Vector labs) were applied. To locate the antigen–antibody combination, marker expression was stained with diaminobenzidine (DAB, manufactured by Sigma) and labelled with peroxidase. In order to conduct negative controls, non-immune serum was substituted for the primary or secondary antibodies. IHC-stained sections were assessed using a Leica (CH9435 Hee56sbrugg) microscope (Leica Microsystems, Switzerland).
Using one-way analysis of variance (ANOVA) followed by Tukey’s post-hoc test, the difference between experimental groups was analysed. All data are presented as mean ± standard deviation (SD). All comparisons were judged statistically significant when the p values ≤ 0.05. ImageJ (NIH Image J system, Bethesda, MD) was used for the analysis of immunohistochemistry photos.

[6] = test system: HepG2; parameters: method as in PMID 20036563, PMID 26890114; conditions: cell line not clearly printed, probably HepG2; read-out: antitumor activity IC50; cited from earlier work
[7] = test system: leukaemia; parameters: method as in PMID 20036563, PMID 26890114; conditions: against leukaemia; read-out: antitumor activity IC50; cited from earlier work
[8] = test system: rat glioma; parameters: method as in PMID 20036563, PMID 26890114; conditions: against rat glioma; read-out: antitumor activity IC50; cited from earlier work

## O=C(Nc1cnccc1OC1CCNCC1)c1csc(-c2c(F)cccc2F)n1 [VIIIa]
[1]
  IC50: 1 nM
[2]
  IC50: 1 nM
[3]
  IC50: 18 nM

## Cc1[nH]/c(=N/N=C2CCC(=N/N=c3/[nH]c(C)c(/N=N/c4ccccc4)s3)CC2)sc1/N=N/c1ccccc1 [IXa]
[4]
  fold of change in Pim1 kinase activity (mRNA expression of Pim1 gene): 0.4 fold

## Cc1ccc(/N=N/c2s/c(=N\N=C3CCC(=N/N=c4/[nH]c(C)c(/N=N/c5ccc(C)cc5)s4)CC3)[nH]c2C)cc1 [IXb]
[4]
  fold of change in Pim1 kinase activity (mRNA expression of Pim1 gene): 0.5 fold

## COc1cccc2c1C(=O)c1c(O)c3c(c(O)c1C2=O)C[C@@](O)(C(=O)CO)C[C@@H]3O[C@H]1C[C@H](N)[C@H](O)[C@H](C)O1 [Doxorubicin, doxorubicin, reference compound]
[5]
  VEGF expression by immunohistochemistry: low expression of VEGF
  caspase-3 expression by immunohistochemistry: moderate caspase-3 expression
  Histopathological examination of Ehrlich solid tumour (H&E): small clusters of cancerous cells
[5]; listed as DOX
  VEGF expression by immunohistochemistry: moderate
  caspase-3 expression by immunohistochemistry: positive caspase3 immunoreactivity
[5]; listed as doxorubicin
  Histopathological examination of Ehrlich solid tumour (H&E): large region of necrotic muscle tissue surrounded by small clusters of cancerous cells

## CNc1nc(C)c(/C(C)=N\c2nc(C)c(/N=N/c3ccccc3)s2)s1 [IV]
[6]
  IC50: 13200 nM

## Cc1sc(=N)n(-c2cccc(-n3c(-c4ccc(Cl)cc4)c(C)sc3=N)c2)c1-c1ccc(Cl)cc1 [VI]
[7]
  IC50: 1460 nM

## O=C(Nc1cnccc1OC1CCCCC1)c1csc(-c2c(F)cccc2F)n1 [VIIIb]
[1]
  IC50: 1 nM
[3]
  IC50: 250 nM

## COc1cc(-c2ccc(Nc3nc(-c4ccc(Br)cc4)cs3)c(OC)c2)ccc1Nc1nc(-c2ccc(Br)cc2)cs1 [III]
[8]
  IC50: 15700 nM

## Cc1[nH]/c(=N/N=C2CCC(=N/N=c3/[nH]c(C)c(/N=N/c4ccccc4Cl)s3)CC2)sc1/N=N/c1ccccc1Cl [IXc]
[4]
  fold of change in Pim1 kinase activity (mRNA expression of Pim1 gene): 0.3 fold
